Reference: US20180344725A1, “QUINOLONE CHALCONE COMPOUNDS AND USES THEREOF” (priority 2015, published 2018)

Key:
MDA-MB-231 = test: SRB-based cytotoxicity assay; assay type: cell-based, human
Procedure: (§1) For (anti)proliferation assays, 4,000-5,000 cells/well of the 96-well clustered dish were incubated for 16 hours, as described previously (Hu et al., 2008; Skehan et al., 1990). After 16 hours, culture medium was replaced with fresh medium containing different dilutions of test compounds dissolved in DMSO. Some wells were treated with 100 μl of 10% trichloroacetic acid (TCA) as a negative control and sham (medium with dimethyl sulfoxide; DMSO) treated cells were used as a positive control. After 72 hours post-incubation, medium was removed and cells were fixed with 10% TCA at 4° C. for 1 hour. TCA was removed and cells were washed with cold tap water, and plate was air-dried, followed by addition of 50 μl of 0.4% SRB staining solution to each well. After 30 minutes incubation, SRB staining solution was removed. Cells were washed with 1% acetic acid solution, and then washed with tap water to remove unbound staining solution, followed by air-drying. 200 μl of 10 mM (pH10.5) trizma base buffer was added to each well to solubilise macromolecules. SRB stained macromolecules were determined at a 540 nm wavelength using an automated plate reader (Synergy H4 Hybrid Multi-Mode Microplate Reader, BioTek, Winooski, Vt.). Cell growth (inhibition) was calculated by the following formula:
(§2) % cells proliferation=[(AT−CT)/(ST−CT)]×100
(§3) wherein AT=absorbance of treated cells, CT=absorbance of negative control cells, and ST=absorbance of sham treated cells. IC50 values were calculated from sigmoidal dose-response curves generated by two independent biological replicates, with quadruplicate in each set by using Graph Pad Prism v.5.04 software. […] The combinational index (CI) was calculated as described previously (Chou 2006). If the CI values were less than, equal to or more than 1, it indicates a synergistic, additive or antagonistic effect respectively (Chou 2006). CI values were determined from four independent experiments.

MCF-7 = test: SRB-based cytotoxicity assay; assay type: cell-based, human
Procedure: as §1, §2, §3

HeLa = test: SRB-based cytotoxicity assay; assay type: cell-based; settings: Homo sapiens; HeLa; 72 hours; Table 4
Procedure: as §1, §2, §3

RPMI-8226 (myeloma) = test: SRB-based cytotoxicity assay; assay type: cell-based; settings: Homo sapiens, 72 hours, Table 4
Procedure: as §1, §2, §3

MCF-10A = test: SRB-based cytotoxicity assay; assay type: cell-based; settings: Homo sapiens, MCF-10A; MCF10A non-cancer; 72 hours; Table 4
Procedure: as §1, §2, §3

184B5 = test: SRB-based cytotoxicity assay; assay type: cell-based; settings: 184B5 non-cancer
Procedure: as §1, §2, §3

MDA-MB-468 = test: SRB-based cytotoxicity assay; assay type: cell-based, human; settings: MDA-MB-468, SRB, Table 2
Procedure: as §1, §2, §3

MDA-MB231TaxR = test: SRB-based cytotoxicity assay, single and combination with paclitaxel; assay type: cell-based; settings: TaxR selected in 100.0 nM paclitaxel
Procedure: All of the cell lines used were purchased from ATCC and cultured in RPMI-1640 supplemented with 10% fetal bovine serum and antibiotics (100 units penicillin/100 μg/ml streptomycin), unless stated otherwise. 1845B5 and MCF-10A non-cancer breast cell lines were cultured in DME/F12 medium supplemented with 10% fetal bovine serum, antibiotics and growth factors. […] The human small cell lung carcinoma H69 cell line and its multidrug-resistant MRP1-overexpressing isogenic H69AR cell line were purchased from ATCC. […] H69 cells grow as large multi-cell aggregates, making it difficult to accurately count cell numbers. […] The IL-6 dependent bortezomib-resistant ANBL6-BR cell line was further supplemented with 1 ng/ml of IL-6. The MCF10AT1 and MCF10CA1a cell lines are isogenic to the MCF10A cell line, and obtained from Dr. Valerie Weaver at the Center for Bioengineering and Tissue Regeneration, UCSF, CA, USA. MCF10AT1 is a premalignant cell line generated by transforming MCF10A with c-Ha-Ras; and MCF10CA1a was isolated by selecting malignant cells after MCF10AT1 cells were engrafted into mice (Liu & Lin 2004; […] et al. 2009). […] The drug-resistant cells were cultured in the absence of drug for at least one passage before carrying out experiments. All cells were maintained in a humidified incubator at 37° C. […] Cell line authentication was performed using short tandem repeat (STR) profiling. For (anti)proliferation assays, 4,000-5,000 cells/well of the 96-well clustered dish were incubated for 16 hours, as described previously (Hu et al., 2008; Skehan et al., 1990). […] Some wells were treated with 100 μl of 10% trichloroacetic acid (TCA) as a negative control and sham (medium with dimethyl sulfoxide; DMSO) treated cells were used as a positive control. […] TCA was removed and cells were washed with cold tap water, and plate was air-dried, followed by addition of 50 μl of 0.4% SRB staining solution to each well. After 30 minutes incubation, SRB staining solution was removed. Cells were washed with 1% acetic acid solution, and then washed with tap water to remove unbound staining solution, followed by air-drying. 200 μl of 10 mM (pH10.5) trizma base buffer was added to each well to solubilise macromolecules. […] Cell growth (inhibition) was calculated by the following formula: % cells proliferation=[(AT-CT)/(ST-CT)]×100 wherein AT=absorbance of treated cells, CT=absorbance of negative control cells, and ST=absorbance of sham treated cells. […] The combinational index (CI) was calculated as described previously (Chou 2006). […] CI values were determined from four independent experiments.

RPMI-8226BTZR = test: Killing of bortezomib-resistant multiple myeloma cells; assay type: cell-based
Excerpt: The RPMI-8226BTZR over-expresses β1, β2 and β5 peptides of the 20S subunit. […] However, RPMI-8226BTZR is sensitive to CTR-20, CTR-21 and CTR-32 (FIG. 36).

[1] = Homo sapiens, 72 hours, Table 4

Row | SMILES | IC50 (MCF-10A) | IC50 (184B5; [1]) | other results
1 | CN(C)CC[C@H](CSc1ccccc1)Nc1ccc(S(=O)(=O)NC(=O)c2ccc(N3CCN(Cc4ccccc4-c4ccc(Cl)cc4)CC3)cc2)cc1[N+](=O)[O-] [ABT-737, reference compound] |  |  | Cell survival rate (MDA-MB-231; single agent 3.125 μM, MDA-MB231): 98.61 ± 3.93; Cell survival rate (MDA-MB-231; single agent 6.25 μM, MDA-MB231): 91.01 ± 9.81
2 | COc1ccccc1C(=O)/C=C/c1cc2cc(C)c(C)cc2[nH]c1=O [CTR-23] | 1120 ± 40 nM | 1320 ± 30 nM | IC50 (MDA-MB-231; Homo sapiens, MDA-MB-231, MDA-MB231, 72 hours, Table 4): 1520 ± 120 nM; IC50 (MCF-7; Homo sapiens, MCF7, 72 hours, Table 4): 500 ± 100 nM; IC50 (HeLa): 640 ± 50 nM; IC50 (RPMI-8226 (myeloma)): 1410 ± 150 nM
3 | COc1cc2cc(/C=C/C(=O)c3ccccc3OC)c(=O)[nH]c2cc1OC [CTR-24] | 2100 ± 390 nM | 2370 ± 190 nM | 
4 | COc1cccc(OC)c1C(=O)/C=C/c1cc2ccccc2[nH]c1=O [CTR-25, (E)-3-(3-(2,6-dimethoxyphenyl)-3-oxoprop-1-enyl)quinolin-2(1H)-one] | 2640 ± 150 nM | 2640 ± 170 nM | 
5 | COc1ccc(OC)c(C(=O)/C=C/c2cc3ccccc3[nH]c2=O)c1 [CTR-26] | 910 ± 30 nM | 770 ± 110 nM | 
6 | COc1ccc(C(=O)/C=C/c2cc3ccccc3[nH]c2=O)c(OC)c1 [CTR-27] | 2520 ± 30 nM | 2800 ± 180 nM | IC50 (MDA-MB-231; MDA-MB231, 72 hours, Table 4): 2690 ± 240 nM
7 | COc1ccc(F)cc1C(=O)/C=C/c1cc2ccccc2[nH]c1=O [CTR-29] | 270 ± 50 nM | 280 ± 10 nM | 
8 | COc1cc(F)ccc1C(=O)/C=C/c1cc2ccccc2[nH]c1=O [CTR-30] | 2790 ± 590 nM | 2460 ± 140 nM | 
9 | COc1ccc(OC)c(C(=O)/C=C/c2cc3cc(OC)ccc3[nH]c2=O)c1 [CTR-34] | 980 ± 40 nM | 1160 ± 100 nM | 
10 | COc1ccc(C(=O)/C=C/c2cc3cc(OC)ccc3[nH]c2=O)c(OC)c1 [CTR-35] | 2880 ± 540 nM | 4290 ± 60 nM | 
11 | COc1ccc2[nH]c(=O)c(/C=C/C(=O)c3ccc(OC(F)(F)F)cc3OC)cc2c1 [CTR-36] | 1350 ± 160 nM | 1840 ± 70 nM | 
12 | COc1ccc2[nH]c(=O)c(/C=C/C(=O)c3cc(F)ccc3OC)cc2c1 [CTR-37] | 460 ± 110 nM | 440 ± 20 nM | 
13 | COc1ccc2[nH]c(=O)c(/C=C/C(=O)c3ccc(F)cc3OC)cc2c1 [CTR-38] | 110 nM | 160 ± 20 nM | 
14 | CCOc1ccccc1C(=O)/C=C/c1cc2cc(OC)ccc2[nH]c1=O [CTR-40, (E)-3-(3-(2-ethoxyphenyl)-3-oxoprop-1-enyl)-6-methoxyquinolin-2(1H)-one] | 70 nM | 100 ± 10 nM | 
15 | CCN(CC)CCCC(C)Nc1ccnc2cc(Cl)ccc12 (stereo not shown) [Chloroquine, reference compound] |  |  | IC50 (MDA-MB-468; Homo sapiens): 28600 nM; IC50 (MDA-MB-231; Homo sapiens, MDA-MB-231, SRB, Table 2): 22500 nM; IC50 (MCF-7; Homo sapiens, MCF7, MCF-7, SRB, Table 2): 38400 nM; IC50 (184B5; Homo sapiens, SRB, Table 2): 76100 nM
16 | N.N.[Cl][Pt][Cl] [Cisplatin, reference compound] |  |  | IC50 (MDA-MB-468): 31000 nM; IC50 (MDA-MB-231; MDA-MB-231, SRB, Table 2): 23600 nM; IC50 (MCF-7; MCF-7, SRB, Table 2): 25800 nM; IC50 (184B5; SRB, Table 2): 25500 nM
17 | COc1cc2c(c(OC)c1OC)-c1ccc(OC)c(=O)cc1[C@@H](NC(C)=O)CC2 [Colchicine, reference compound] |  |  | killing of MDA-MB231TaxR compared with parental MDA-MB231 (MDA-MB231TaxR): to the same degree as the parental MDA-MB231 cells
18 | CC(C)C[C@H](NC(=O)[C@H](Cc1ccccc1)NC(=O)c1cnccn1)B(O)O [bortezomib, reference compound] |  |  | resistance of RPMI-8226BTZR compared to RPMI-8226 parental cells (RPMI-8226BTZR): approximately 28 fold
